Key:
[1] = tested on: lymphocytic leukemia P388; assay: Lymphocytic leukemia P388 test; assay type: in vivo, DBA/2 mice
Method: The animals used are DBA/2 mice all of one sex, weighing a minimum of 17 g. and all within a 3 g. weight range. There are 5 or 6 animals per test group. The tumor transplant is by intraperitoneal injection of 0.5 ml. of dilute ascitic fluid containing 10^6 cells of lymphocytic leukemia P388. The test compounds are administered intraperitoneally on days one, 5 and 9 (relative to tumor inoculation) at various doses. […] The median survival time and the ratio of survival time for treated (T)/control (C) animals are calculated. The positive control compound is 5-fluorouracil given as a 60 mg./kg. injection. The results of this test with representative compounds of the present invention appear in Table I. The criterion for efficacy is T/C x 100>125%.

melanotic melanoma B16 = assay: Melanotic Melanoma B16 test; assay type: in vivo, BDF1 mice
Method: The animals used are BDF1 mice, all of the same sex, weighing a minimum of 17 g. and all within a 3 g. weight range. There are normally 10 animals per test group. A one-gram portion of melanotic melanoma B16 tumor is homogenized in 10 ml. of cold balanced salt solution and a 0.5 ml. aliquot of the homogenate is implanted intraperitoneally into each of the test mice. The test compounds are administered intraperitoneally on days one through 9 (relative to tumor inoculation) at various doses. The animals are weighed and survivors are recorded on a regular basis for 60 days. The median survival time and the ratio of survival time for treated (T)/control (C) animals are calculated. The positive control compound is 5-fluorouracil given as a 20 mg./kg. injection. The criterion for efficacy is T/C x 100 >125%.

[2] = 1st test, dose 0.78 mg./kg. intraperitoneally on days 1, 5 and 9
[3] = 1st test, dose 1.56 mg./kg. intraperitoneally on days 1, 5 and 9
[4] = 1st test, dose 3.12 mg./kg. intraperitoneally on days 1, 5 and 9
[5] = 1st test, dose 6.25 mg./kg. intraperitoneally on days 1, 5 and 9
[6] = 2nd test, dose 0.10 mg./kg. intraperitoneally on days 1, 5 and 9
[7] = 2nd test, dose 0.19 mg./kg. intraperitoneally on days 1, 5 and 9
[8] = 2nd test, dose 0.39 mg./kg. intraperitoneally on days 1, 5 and 9
[9] = 2nd test, dose 0.78 mg./kg. intraperitoneally on days 1, 5 and 9
[10] = 2nd test, dose 1.56 mg./kg. intraperitoneally on days 1, 5 and 9
[11] = 2nd test, dose 3.12 mg./kg. intraperitoneally on days 1, 5 and 9
[12] = 2nd test, dose 6.25 mg./kg. intraperitoneally on days 1, 5 and 9
[13] = dose 0.09 mg./kg. intraperitoneally on days one through 9
[14] = dose 0.19 mg./kg. intraperitoneally on days one through 9
[15] = dose 0.37 mg./kg. intraperitoneally on days one through 9
[16] = dose 0.75 mg./kg. intraperitoneally on days one through 9
[17] = dose 1.5 mg./kg. intraperitoneally on days one through 9
[18] = 1st test, positive control, dose 60 mg./kg.
[19] = 2nd test, positive control, dose 60 mg./kg.
[20] = positive control, dose 20.0 mg./kg.

O=C1c2c(O)ccc(O)c2C(=O)c2c(NCCN3CCOC3)ccc(NCCN3CCOC3)c21 [l,4-Dihydroxy-5,8-bis[[2-(3-oxazolidinyl)ethyl]amino]-anthraquinone] was tested, and the “Median Survival Time” value [1, 2] was 23.0 days, the “T/C x 100 (Percent)” value [1, 2] was 209% and the “Median Survival Time” value [1, 3] was 23.5 days. The “T/C x 100 (Percent)” value [1, 3] was 214%, the “"Cures" = number of survivors/total at 60 days” value [1, 4] was 1/6 and the “Median Survival Time” value [1, 4] was 29.5 days. The “T/C x 100 (Percent)” value [1, 4] was 268%, the “"Cures" = number of survivors/total at 60 days” value [1, 5] was 2/6 and the “Median Survival Time” value [1, 5] was >30.0 days. For the same molecule, the “T/C x 100 (Percent)” value [1, 5] was >273%, the “Median Survival Time” value [1, 6] was 19.5 days and the “T/C x 100 (Percent)” value [1, 6] was 177%. For the same molecule, the “Median Survival Time” value [1, 7] was 23.5 days, the “T/C x 100 (Percent)” value [1, 7] was 214% and the “Median Survival Time” value [1, 8] was 23.5 days. For the same molecule, the “T/C x 100 (Percent)” value [1, 8] was 214%, the “Median Survival Time” value [1, 9] was 22.0 days and the “T/C x 100 (Percent)” value [1, 9] was 200%. For the same molecule, the “"Cures" = number of survivors/total at 60 days” value [1, 10] was 1/6, the “Median Survival Time” value [1, 10] was 30.0 days and the “T/C x 100 (Percent)” value [1, 10] was 273%. The “Median Survival Time” value [1, 11] was >30.0 days, the “T/C x 100 (Percent)” value [1, 11] was >273% and the “Median Survival Time” value [1, 12] was 14.0 days. The “T/C x 100 (Percent)” value [1, 12] was 127%, the “Median Survival Time” value (melanotic melanoma B16; [13]) was 29.0 days and the “T/C x 100 (Percent)” value (melanotic melanoma B16; [13]) was 153%. For the same molecule, the “Median Survival Time” value (melanotic melanoma B16; [14]) was 31.0 days, the “T/C x 100 (Percent)” value (melanotic melanoma B16; [14]) was 163% and the “Median Survival Time” value (melanotic melanoma B16; [15]) was 49.5 days. The “T/C x 100 (Percent)” value (melanotic melanoma B16; [15]) was 260%, the “Median Survival Time” value (melanotic melanoma B16; [16]) was 46.0 days and the “T/C x 100 (Percent)” value (melanotic melanoma B16; [16]) was 242%. The “Median Survival Time” value (melanotic melanoma B16; [17]) was 55.5 days and the “T/C x 100 (Percent)” value (melanotic melanoma B16; [17]) was 292%.
With O=c1[nH]cc(F)c(=O)[nH]1 [5-Fluorouracil, 5-fluorouracil, reference compound] the “Median Survival Time” value [1, 18] was 21.0 days, the “T/C x 100 (Percent)” value [1, 18] was 191% and the “Median Survival Time” value [1, 19] was 21.5 days. For the same molecule, the “T/C x 100 (Percent)” value [1, 19] was 195%, the “Median Survival Time” value (melanotic melanoma B16; [20]) was 26.0 days and the “T/C x 100 (Percent)” value (melanotic melanoma B16; [20]) was 137%.
